The molecules below were run on aad-4 riboswitch RNA (aad-4 leader RNA) (RNA, riboswitch) GGAGCAGCAACGAUGUUACGCAGCAGGGCAGUCGCCCUAAACAAAGUUAGGCCGCAUGGACACAACGCAGGUCACAUUGAUACACCAAAUUCUAGCUGCGGCAGAUGAGCGAAAU (assay: MicroScale Thermophoresis). Details: 100 mM KCl, 0.1 mM MgCl2; 10 mM HEPES pH 7.5; FTSC-labelled RNA.

Structure (SMILES)	Kd
NC[C@@H]1O[C@H](O[C@H]2[C@@H](O)[C@H](O[C@@H]3[C@@H](O)[C@H](N)C[C@H](N)[C@H]3O[C@H]3O[C@H](CO)[C@@H](O)[C@H](O)[C@H]3N)O[C@@H]2CO)[C@H](N)[C@@H](O)[C@@H]1O	10 µM
NC[C@H]1O[C@H](O[C@H]2[C@H](O[C@@H]3O[C@H](CO)[C@@H](O)[C@H]3O)[C@@H](O)[C@H](N)C[C@@H]2N)[C@H](N)[C@@H](O)[C@@H]1O	40 µM
NC[C@H]1O[C@H](O[C@H]2[C@H](O)[C@@H](O)[C@H](N)C[C@@H]2N)[C@H](N)[C@@H](O)[C@@H]1O	12 µM

Same assay, conditions: 100 mM KCl, 0.1 mM MgCl2; 10 mM HEPES pH 7.5; FTSC-labelled RNA; only group range 1.2–3.9 µM given

Structure (SMILES)	Kd
NC[C@H]1O[C@H](O[C@H]2[C@H](O)[C@@H](O[C@H]3O[C@H](CO)[C@@H](O)[C@H](N)[C@H]3O)[C@H](N)C[C@@H]2N)[C@H](N)C[C@@H]1O	1.58 ± 0.28 µM
NC[C@H]1O[C@H](O[C@H]2[C@H](O)[C@@H](O[C@H]3O[C@H](CO)[C@@H](O)[C@H](N)[C@H]3O)[C@H](N)C[C@@H]2N)[C@H](N)[C@@H](O)[C@@H]1O	2.55 ± 0.24 µM
CN[C@@H]1[C@@H](O)[C@@H](O[C@@H]2[C@@H](O)[C@H](O[C@H]3OC(CN)=CC[C@H]3N)[C@@H](N)C[C@H]2N)OC[C@]1(C)O	2.16 ± 0.25 µM

— paper PMC7588185 (2020)
